Molecules are shown by their SMILES.

Our source for the Ki values is patent publication EP0741709B1, “AROMATIC 2-AMINO-IMIDAZOLE DERIVATIVES AS ALPHA-2A ADRENOCEPTOR AGONISTS” (Allergan Sales, Inc., priority 1994, dated 1995).

The test has as its target T1, human α2C (Homo sapiens, UniProt P18825).
T1 construct: expressed in transfected cells; host or cells: CHO (CHO-C4)
T1 sequence (P18825 1-462): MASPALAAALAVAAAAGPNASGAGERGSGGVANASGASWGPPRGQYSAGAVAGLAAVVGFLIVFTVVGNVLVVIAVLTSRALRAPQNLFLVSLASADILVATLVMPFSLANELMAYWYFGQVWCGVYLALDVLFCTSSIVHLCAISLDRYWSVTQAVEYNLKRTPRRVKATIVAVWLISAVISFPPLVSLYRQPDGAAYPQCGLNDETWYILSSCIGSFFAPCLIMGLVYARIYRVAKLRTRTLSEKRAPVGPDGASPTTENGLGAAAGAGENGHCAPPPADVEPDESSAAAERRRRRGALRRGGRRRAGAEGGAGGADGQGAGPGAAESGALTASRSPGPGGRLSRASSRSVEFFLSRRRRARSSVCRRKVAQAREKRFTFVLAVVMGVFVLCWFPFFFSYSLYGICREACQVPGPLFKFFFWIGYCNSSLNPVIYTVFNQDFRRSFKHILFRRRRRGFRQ
Description: Receptor binding assay, [3H]rauwolscine, CHO-C4 cell membranes. Conditions: 22°C, 30 minutes. On the procedure: Cell preparation: Chinese hamster ovary (CHO) cells expressing the human α2A and human α2C (CHO-C10 and CHO-C4 respectively) receptors and CHO cells (CHO-RNG) expressing the rat α2B adrenoceptor were grown to near confluence in Dulbecco's modified Eagle's medium supplemented with 10% fetal bovine serum using standard cell culture methods. Cells were harvested by scraping and placed into cold buffer of the following composition: 50 mM Tris-HCl, 5 mM EDTA, pH 7.4). Cells were then homogenized with a Polytron homogenizer for 2 X 10 sec at setting #7, and centrifuged for 20 minutes at 49,000 x g. The pellet fraction was washed (resuspended in Tris-HCl, pH 8 buffer and centrifuged for 15-20 minutes at 49,000 x g) 2 times and stored at -100°C until binding assay.
Binding Studies: The radioligands [^3H]rauwolscine (specific activity 80 Ci/mmol) and [^3H]prazosin (specific activity 76 Ci/mmol) were obtained from New England Nuclear, Boston, MA. Frozen membrane pellet was resuspended in 25 mM glycine/glycine, pH 7.5 and incubated with radioligand under the following conditions: CHO-C10, CHO-RNG, CHO-C4-[^3H]rauwolscine, 22°C, 30 minutes; RKC-[^3H]rauwolscine, 0°C, 120 minutes; and, HCC-[^3H]prazosin, 22°C, 30 minutes in a final volume of 500 ul. At the end of the incubation period, the samples were filtered through glass filters (Whatman GF/B) in a 96 well cell harvester and rapidly washed four times with 4 mL of iced-cold 50 mM Tris-HCl buffer. The filters were then oven dried and transferred to scintillation vials containing 10 mL of Beckman's Ready Protein® scintillation cocktail for counting. Specific binding defined by 10 uM phentolamine for competition studies were as follows: 2.4 nM [^3H]brimonidine-RbICB 62%; 2.4 nM [^3H]rauwolscine-RbICB 75%; 2 nM [^3H]rauwolscine-RbKc 88%; 0.3 nM [^3H] rauwolscine-CHO-C10 99%; 0.4 nM [^3H]rauwolscine-CHO-RNG 99%, 0.3 nM [^3H]prazosin 87%; and 1 nM [^3H]rauwolscine-CHO-C4 90%. Protein concentrations were determined with a protein assay kit from Bio Rad. Binding isotherms, equilibrium dissociation and affinity constants were analyzed and determined by the non-linear least squares curve fitting programs EBDA (BioSoft) or AccuFit Competition/Saturation by Beckman.
The radioligands [^3H)rauwolscine (specific activity 80 Ci/mmol) and [^3H]prazosin (specific activity 76 Ci/mmol) were obtained from New England Nuclear, Boston, MA. Frozen membrane pellet was resuspended in 25 mM glycine/glycine, pH 7.4 and incubated with radioligand under the following conditions: CHO-C10, CHO-RNG, CHO-C4-[^3H]rauwolscine, 22°C, 30 min.; and, HCC-[^3H]prazosin, 22°C, 30 minutes in a final volume of 500 ul. At the end of the incubation period, the samples were filtered through glass fiber filters (Whatman GF/B) in a 96 well cell harvester and rapidly washed four times with 4 mL of iced-cold 50 mM Tris-CHl buffer. The filters were then oven dried and transferred to scintillation vials containing 5 mL of Beckman's Ready Protein® scintillation cocktail for counting. Specific binding defined by 10 uM phentolamine for competition studies were as follows: 0.3 nM[^3H] rauwolscine-CHO-C10 99%; 0.4 nM [^3H]rauwolscine-CHO-RNG 99%, and 0.3 nM [^3H] prazosin-HCC 87%. Protein concentrations were determined with a protein assay kit from Bio Rad. Binding isotherms, equilibrium dissociation and affinity constants were analyzed and determined by the non-linear least squares curve fitting programs AccuFit Competition/Saturation by Beckman.
By Ki is commonly meant the equilibrium dissociation constant of an inhibitor or competing ligand from its target. A lower Ki goes with higher affinity. For `c1ccc(Nc2ncc[nH]2)cc1`, the Ki stood at 3240 nM. As for `Clc1ccccc1Nc1ncc[nH]1`, the figure is 2250 nM. As for `Brc1ccccc1Nc1ncc[nH]1`, the figure is 2390 nM. As for `Clc1cccc(Cl)c1Nc1ncc[nH]1`, the figure is 1120 nM.

Compound `Cc1ccccc1Nc1ncc[nH]1` showed a Ki of 577 nM. In the case of `Brc1c(Nc2ncc[nH]2)ccc2nccnc12`, the Ki was determined as 9670 nM. For `Cc1c(Nc2ncc[nH]2)ccc2c1OCCO2` the value was 19 nM; for `c1cc2c(c(Nc3ncc[nH]3)c1)CCCC2`, 252 nM.

For the compound `Cc1c(Nc2ncc[nH]2)ccc2c1NCCO2`, the Ki is 229 nM. For `COc1ccc(Nc2ncc[nH]2)c(C)c1` the value was 512 nM.
